Earlier results on two compounds are cited in US20240261298A1, “METHODS OF TREATING DEPRESSION AND ANXIETY” (Woolsey Pharmaceuticals, Inc., priority 2021, published 2024).

In series [1] the test system is adult mice. Conditions: exposure to fasudil.
The conditions of series [2]: 1 hydroxy (M3) metabolite, in vivo.

Where a name gives a salt, the structure may show the parent alone.

Consider `O=S(=O)(c1cccc2cnccc12)N1CCCNCC1` [Fasudil, Hexahydro-1-(5-isoquinolinesulfonyl)-1H-1,4-diazepine monohydrochloride hemihydrate], for which the anxiety-like behaviors result in series [1] was “induces anxiety-like behaviors”.

For the compound `O=S(=O)(c1cccc2c(O)nccc12)N1CCCNCC1` [M3], the half-life result in series [2] was “about 8 hours”.
